Experimental data taken from patent publication US20060024691A1, “Novel pathways in the etiology of cancer” (Buck Institute for Age Research, priority 2004, published 2006).
Read-outs that look alike come from different tables or passages of the source.

Key:
[1] = tested on: p50 and p65 NFκB subunits; test: Immunoblot of nuclear p50 and p65 NFκB subunits in MCF-7 cells; format: cell-based, human; settings: MCF-7, menadione 100 μM × 30 min
Protocol: (§1) PS-341 was kindly provided by Millennium Pharmaceuticals Inc. (Cambridge, Mass.). […] For assessment of combined treatment effects on cell viability, 2×10^4 cells (MCF-7, MCF-7/HER2, BT474) grown in 24-well plates were first treated with tamoxifen (dissolved in ethanol) and/or parthenolide (dissolved in DMSO); for the combination treatment pathenolide was added 4 h before addition of tamoxifen. Cell viability was measured 18 h after tamoxifen treatment using the sulforhodamine B (SRB) assay (Skehan, et al. 1990). Briefly, cells fixed with trichloroacetic acid were stained for 30 min with 0.4% SRB dissolved in 1% acetic acid. Unbound dye was removed by four washes with 1% acetic acid, and protein-bound dye was extracted with 10 mM unbuffered Tris base [tris(hydroxymethyl)aminomethane] for determination of optical density at 564 nm.
Fractionation of control and treated cells into cytoplasmic and nuclear extracts was performed as previously described (Dignam et al., 1983), with minor modification. Cells harvested on ice were washed twice with cold PBS, scraped and resuspended in 1.0 ml hypotonic buffer (20 mM HEPES, pH 7.0; 10 mM KCl; 1 mM MgCl2; 0.1% Triton X-100; 20% glycerol; 0.5 mM DTT) containing a cocktail of protease inhibitors (Mini CompleteTM protease inhibitors, Roche Diagnostics, Mannheim, Germany). The harvested cells were Dounce homogenized on ice, the mixture centrifuged at 3,000 rpm at 4° C. (5 min), and the cytoplasmic fraction separated from the nuclear pellet which was resuspended in elution buffer (20 mM HEPES, pH 7.0; 10 mM KCl; 1 mM MgCl2; 0.42 M NaCl; 0.1% Triton X-100; 20% glycerol; 0.5 mM DTT), supplemented with protease inhibitors. After 20 min at 4° C. the buffered mixture was centrifuged at 14,000 rpm at 4° C. (10 min) to obtain solubilized nuclear extracts which were then stored in aliquots at −80° C. after protein determination (Bradford; BioRad, Hercules, Calif.) and for subsequent NFkB DNA-binding assays.
Antibodies against p50 NFκB, p65 NFκB, IκB, and β-actin proteins were commercially obtained (Santa Cruz Biotechnology, Santa Cruz, Calif.; and Abcam Inc., Cambridge, Mass.). […]; 4% SDS; 20% glycerol; and 10% 2-mercaptoethanol) and resolved by electrophoresis in 4-12% Bis-Tris SDS gradient gels in morpholinepropane sulfonic acid (MOPS) buffer. Separated proteins were transferred onto polyvinylidene difluoride membranes (Millipore Co., Billerica, Mass.), blocked with 5% non-fat milk in PBS containing 0.1% Tween-20, and membranes immunoblotted with the indicated antibodies in blocking solution. […]

ERα = settings: estrogen-free culture, 30 min, K3 100 μM, estradiol 10 nM
Protocol: (§2) Human breast cancer cell lines MCF7 and T47D were obtained from the American Type Culture Collection (ATCC). MCF7 cells were maintained in Dulbecco's Modification of Eagle's Medium (Cellgro) supplemented with 10% fetal bovine serum (Cellgro), 1% penicillin/streptomycin (Cellgro) and 10 μg/ml insulin (Sigma). T47D cells were maintained in RPMI (Cellgro) supplemented with 10% fetal bovine serum, 1% penicillin/streptomycin and 10 μg/ml insulin. Treatment conditions for both cell lines involved plating ˜1×10^6 cells in normal media onto 10 cm dishes, attachment and growth for 24 hours followed by a change to estrogen-free culture conditions (phenol red-free DME H-16 supplemented with 10% charcoal stripped serum, 1% penicillin/streptomycin and 10 μg/ml insulin) for an additional 24 hours. Cells were then treated as indicated for 30 minutes before extract preparation. Indicated conditions involved 30 minute pretreatments.
(§3) For preparation of high-salt nuclear extracts (nucleoplasm), isolated nuclei were resuspended for 20 minutes in ice cold extraction buffer (0.4 M NaCl, 25 mM Tris pH 7.5, 1 mM DTT, 20% glycerol, 10 mM NaFl and min-complete protease inhibitors (Roche)) followed by a 4° C. centrifugation at 16,000×g for 15 minutes.

ERK1/ERK2 = test: MAPK activation: ERK1/ERK2 phosphorylation, Western blot; format: cell-based, human; settings: MCF7 cells, 30 minutes
Protocol: as §2, §3
Membranes were then blocked for 30 minutes in blocking buffer (150 mM NaCl, 20 mM Tris pH 7.5, 0.3% Tween-20 and 4% Nonfat dry milk powerby weight).

IκBα = test: Immunoblot of cytoplasmic IκBα in MCF-7 cells; format: cell-based, human; settings: MCF-7, menadione 100 μM × 30 min
Protocol: as §1
Fractionation of control and treated cells into cytoplasmic and nuclear extracts was performed as previously described (Dignam et al., 1983), with minor modification. Cells harvested on ice were washed twice with cold PBS, scraped and resuspended in 1.0 ml hypotonic buffer (20 mM HEPES, pH 7.0; 10 mM KCl; 1 mM MgCl2; 0.1% Triton X-100; 20% glycerol; 0.5 mM DTT) containing a cocktail of protease inhibitors (Mini CompleteTM protease inhibitors, Roche Diagnostics, Mannheim, Germany). […]

NF-κB p50 = test: Nuclear translocation of NF-κB p50 in MCF-7 cultures; format: cell-based, human; settings: 10 μM, 30 min

In the case of `CC1=CC(=O)c2ccccc2C1=O` [menadione, 2-methyl-1,4-naphthoquinone], the “nuclear NFκB subunits p50 and p65 after menadione treatment” value [1] is reported as “increases in the nuclear NFκB subunits, p50 and p65”, the “nuclear translocation of ERα” value (ERα) is reported as “nuclear translocation of 67 kDa (wild-type) ER” and the “nuclear translocation of ERα” value (ERα; listed as K3) is reported as “majority of this cytoplasmic ERα has translocated to the nucleus”. The “ERK1/ERK2 phosphorylation induced by treatment” value (ERK1/ERK2) was “high level of ERK1/ERK2 phosphorylation”, the “cytoplasmic levels of IκBα after menadione treatment” value (IκBα) was “reduced” and the “increase in nuclear translocation of NF-κB p50 vs control treated cells” value (NF-κB p50) was > 3 fold.
